From patent publication US11834566B2, “High-carbon recovered paper and plastic materials with reduced endotoxin levels” (Continuus Materials Intellectual Property, LLC, priority 2020, dated 2023)

Assay: Water-soluble endotoxin in aqueous extract of recovered paper/plastic fragments, L.A.L. kinetic chromogenic method
Details: Example 13, about 2,000 ppm glutaraldehyde on fragments
Method: Sample #7 from Example 1 was assayed for water-soluble endotoxins. Specifically, a clean, new 500 mL plastic bottle (500 mL capacity) was charged with recovered paper/plastic fragments (20 g, from sample #7 in Example 1) and sterile, cell-culture grade water (200 g). The bottle was immediately capped tightly and agitated in a Gilson shaker for a period of 60 s. The loaded bottle was then conditioned for 1 h at a temperature of 65-70° F. and was then subjected to agitation in the Gilson shaker for a second period of 60 s. The bottle was then opened and a sample of liquor extract (15 mL) was decanted into a sterile sample vial, which was immediately capped and labeled. Collected extract underwent endotoxin analysis using the L.A.L. kinetic chromogenic method.
Recovered paper/plastic sample batches (500 g, as-is basis, #7 sample from Example 1) were loaded into a plastic bin (16.125″×11.25″×6.75″) and were then sprayed with aqueous glutaraldehyde solutions at various target levels. In this process, the loaded bin was weighed initially and was then re-weighed repeatedly during the application of the glutaraldehyde solution until the target application level was achieved. The bin was repeatedly closed and shaken during this process in order to obtain a uniform distribution of the glutaraldehyde on the fragments. […]

O=CCCCC=O [glutaraldehyde]
water-soluble endotoxin crosslinked and converted to water-insoluble material: about 99.9%
